PMC6017545, “Design, Synthesis, and Biological Evaluation of Novel 1,3,4-Thiadiazole Derivatives as Potential Antitumor Agents against Chronic Myelogenous Leukemia: Striking Effect of Nitrothiazole Moiety” (Molecules : A Journal of Synthetic Chemistry and Natural …, 2017)

Key:
[1] = tested on: K562 chronic myelogenous leukemia cell line; assay: MTT cytotoxicity assay, K562 cells; format: cell-based, human; details: for IC50: Homo sapiens, K562, 48 h of incubation, mean ± SD, three independent experiments
Experimental: (§1) HeLa human cervical carcinoma cells were incubated in Dulbecco’s modified Eagle’s medium (DMEM) (Wako Pure Chemical Industries, Osaka, Japan) supplemented with 10% fetal bovine serum (FBS) (Equitech-Bio, Kerrville, TX, USA). […] Growing cells were plated at 2 × 10^4 cells/mL into 24-well microtiter tissue culture plates (Iwaki brand Asahi Glass Co., Chiba, Japan) and incubated for 48 h before the addition of the drugs (the optimal cell number for cytotoxicity assays was determined in preliminary experiments). […] The concentration of DMSO in the final culture medium was 1%.
(§2) The level of cellular reduction of 3-(4,5-dimethylthiazol-2-yl)-2,5-diphenyltetrazolium bromide (MTT) (Dojindo Molecular Technologies, Kumamoto, Japan) was quantified as previously described in the literature with small modifications [46]. The tested compounds were incubated with cells in various concentrations for 48 h. […] The solution was removed, and the formazan crystals were solubilized by an addition of 100 μL DMSO. The absorbance of the converted dye in the living cells was measured at a wavelength of 550 nm using a microplate spectrophotometer Infinitive M1000 (Tecan, Groding, Austria). Cell viability was calculated as a percentage of the viable control cells.

MT-2 cell line = assay: MTT cytotoxicity assay, MT-2 cells; format: cell-based; details: Homo sapiens, MT2, 48 h of incubation, mean ± SD, three independent experiments
Experimental: as §1, §2

Jurkat cell line = assay: MTT cytotoxicity assay, Jurkat cells; format: cell-based; details: Homo sapiens, 48 h of incubation, mean ± SD, three independent experiments
Experimental: as §1, §2

[2] = tested on: HeLa human cervical carcinoma cell line; assay: MTT cytotoxicity assay, HeLa cells; format: cell-based; details: for activity against the HeLa cell line (in words): 48 h; for IC50: Homo sapiens, HeLa, 48 h of incubation, mean ± SD, three independent experiments
Experimental: as §1, §2

HeLa cells = assay: Apoptotic/necrotic/healthy cells detection assay (annexin V/ethidium homodimer III staining); format: cell-based, human; details: IC50 concentration; for apoptotic activity: 3 h, approximately 100 stained cells counted; for apoptotic and necrotic effects: 24 h and 48 h, data not shown
Experimental: Then, detection of apoptotic/necrotic/healthy cells was performed according to the manufacturer’s instructions (PromoKine, Heidelberg, Germany). After the cells were washed twice with 1× binding buffer, a staining solution containing 50 μL of 1 × binding buffer, 2 μL of FITC-Annexin V solution, 2 μL of ethidium homodimer III solution, and 2 μL of Hoechst 33,342 solution was added and the cells were incubated for 15 min at room temperature (RT), protected from light. The cells were washed with 1 × binding buffer, analyzed by the all-in-one fluorescence microscope Biorevo Fluorescence BZ-9000 (Keyence, Osaka, Japan), and counted as described previously in [47].

[3] = tested on: peripheral blood mononuclear cells (PBMC); assay: MTT cytotoxicity assay, PBMC; format: cell-based
Experimental: as §1, §2

ABL1 = target: T1, ABL1 (Homo sapiens, UniProt P00519); assay: Kinase inhibition assay (TK-2 profiling, ADP-Glo), ABL1; format: biochemical; details: 1 h at room temperature
T1 construct: purchased Promega Corporation
Experimental: (§3) Kinase selectivity profiling system (TK-2) assays were performed according to the manufacturer’s instructions (Promega Corporation, Madison, WI, USA). Multipoint dose-response experiments were performed using eight kinases, namely: ABL1, BRK, BTK, CSK, FYN A, LCK, LYN B, and SRC. […] After 1 h of incubation at room temperature, kinase activity was quantified using the ADP-Glo Kinase Assay (Promega Corporation). Kinase inhibition was quantified using an Infinitive M1000 luminescence microplate spectrophotometer (Tecan, Groding, Austria).

LCK = target: T2, LCK (Homo sapiens, UniProt P06239); assay: Kinase inhibition assay (TK-2 profiling, ADP-Glo), LCK; format: biochemical
T2 construct: purchased Promega Corporation
Experimental: as §3

SRC = target: T3, SRC (Homo sapiens, UniProt P12931); assay: Kinase inhibition assay (TK-2 profiling, ADP-Glo), SRC; format: biochemical
T3 construct: purchased Promega Corporation
Experimental: as §3

BRK = BRK (Homo sapiens, UniProt Q13882); assay: Kinase inhibition assay (TK-2 profiling, ADP-Glo), BRK
Experimental: as §3

BTK = BTK (Homo sapiens, UniProt Q06187); assay: Kinase inhibition assay (TK-2 profiling, ADP-Glo), BTK
Experimental: as §3

CSK = CSK (Homo sapiens, UniProt P41240); assay: Kinase inhibition assay (TK-2 profiling, ADP-Glo), CSK
Experimental: as §3

FYN A = FYN A (Homo sapiens, UniProt P06241); assay: Kinase inhibition assay (TK-2 profiling, ADP-Glo), FYN A
Experimental: as §3

LYN B = LYN B (Homo sapiens, UniProt P07948); assay: Kinase inhibition assay (TK-2 profiling, ADP-Glo), LYN B
Experimental: as §3

[4] = ADP-Glo, 1 h at room temperature

T3 sequence (P12931 whole entry): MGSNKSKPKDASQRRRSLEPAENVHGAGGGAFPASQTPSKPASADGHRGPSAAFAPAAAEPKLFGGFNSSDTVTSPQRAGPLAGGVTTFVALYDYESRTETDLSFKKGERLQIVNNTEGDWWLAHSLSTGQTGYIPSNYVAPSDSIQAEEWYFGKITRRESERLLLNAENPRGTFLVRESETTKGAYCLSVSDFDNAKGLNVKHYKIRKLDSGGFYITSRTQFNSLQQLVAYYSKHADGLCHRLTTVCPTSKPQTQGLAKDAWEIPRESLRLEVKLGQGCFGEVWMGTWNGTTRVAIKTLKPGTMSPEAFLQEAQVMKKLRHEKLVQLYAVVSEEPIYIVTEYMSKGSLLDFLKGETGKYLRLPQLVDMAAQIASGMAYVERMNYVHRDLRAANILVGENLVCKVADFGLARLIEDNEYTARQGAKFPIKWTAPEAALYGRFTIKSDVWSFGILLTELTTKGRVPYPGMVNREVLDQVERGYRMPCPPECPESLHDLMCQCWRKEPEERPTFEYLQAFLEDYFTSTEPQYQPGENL
Chain of FYN A (P06241 whole entry): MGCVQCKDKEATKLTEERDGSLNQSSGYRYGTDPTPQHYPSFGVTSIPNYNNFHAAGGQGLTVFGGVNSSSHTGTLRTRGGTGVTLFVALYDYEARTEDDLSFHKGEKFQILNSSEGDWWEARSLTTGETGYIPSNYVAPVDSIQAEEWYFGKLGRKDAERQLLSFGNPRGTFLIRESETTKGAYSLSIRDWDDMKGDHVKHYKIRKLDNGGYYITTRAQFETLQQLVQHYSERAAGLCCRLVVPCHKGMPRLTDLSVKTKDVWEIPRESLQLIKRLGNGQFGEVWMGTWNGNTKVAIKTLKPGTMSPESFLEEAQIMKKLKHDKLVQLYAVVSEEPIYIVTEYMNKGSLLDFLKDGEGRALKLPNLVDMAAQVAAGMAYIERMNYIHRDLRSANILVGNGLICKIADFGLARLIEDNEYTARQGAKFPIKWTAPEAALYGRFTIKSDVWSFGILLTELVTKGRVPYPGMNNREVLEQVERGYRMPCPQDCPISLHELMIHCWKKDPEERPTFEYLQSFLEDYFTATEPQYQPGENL
Chain of CSK (P41240 whole entry): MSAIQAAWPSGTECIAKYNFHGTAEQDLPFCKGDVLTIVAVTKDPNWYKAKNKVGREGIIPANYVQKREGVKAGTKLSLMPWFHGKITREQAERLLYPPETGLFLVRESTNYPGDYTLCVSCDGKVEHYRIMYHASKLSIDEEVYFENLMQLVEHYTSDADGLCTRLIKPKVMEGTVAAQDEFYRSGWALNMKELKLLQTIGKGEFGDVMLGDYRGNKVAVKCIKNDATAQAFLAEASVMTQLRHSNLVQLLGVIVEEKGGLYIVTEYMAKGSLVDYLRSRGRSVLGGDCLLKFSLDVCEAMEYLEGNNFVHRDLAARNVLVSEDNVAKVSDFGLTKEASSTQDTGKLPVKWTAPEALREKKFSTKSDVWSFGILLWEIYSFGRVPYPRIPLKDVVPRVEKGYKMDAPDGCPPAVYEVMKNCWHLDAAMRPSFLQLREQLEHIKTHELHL
Chain of BTK (Q06187 whole entry): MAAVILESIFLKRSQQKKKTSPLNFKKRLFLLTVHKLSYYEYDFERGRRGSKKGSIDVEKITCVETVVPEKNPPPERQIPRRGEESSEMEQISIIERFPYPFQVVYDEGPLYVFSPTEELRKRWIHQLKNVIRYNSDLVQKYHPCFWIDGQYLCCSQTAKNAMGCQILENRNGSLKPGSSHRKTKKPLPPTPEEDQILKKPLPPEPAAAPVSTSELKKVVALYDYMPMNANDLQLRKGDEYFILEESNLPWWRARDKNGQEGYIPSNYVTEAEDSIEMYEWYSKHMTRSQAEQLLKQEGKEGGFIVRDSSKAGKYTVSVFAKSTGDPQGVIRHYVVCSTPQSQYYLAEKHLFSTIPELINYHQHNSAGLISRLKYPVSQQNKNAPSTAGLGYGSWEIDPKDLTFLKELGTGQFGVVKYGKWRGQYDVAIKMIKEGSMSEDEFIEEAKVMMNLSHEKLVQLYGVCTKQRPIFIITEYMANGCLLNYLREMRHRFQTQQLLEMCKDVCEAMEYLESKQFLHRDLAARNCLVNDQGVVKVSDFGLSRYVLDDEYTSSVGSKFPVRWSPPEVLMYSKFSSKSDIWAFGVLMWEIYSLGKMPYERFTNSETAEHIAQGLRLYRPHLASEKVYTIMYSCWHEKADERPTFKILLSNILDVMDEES
Chain of BRK (Q13882 whole entry): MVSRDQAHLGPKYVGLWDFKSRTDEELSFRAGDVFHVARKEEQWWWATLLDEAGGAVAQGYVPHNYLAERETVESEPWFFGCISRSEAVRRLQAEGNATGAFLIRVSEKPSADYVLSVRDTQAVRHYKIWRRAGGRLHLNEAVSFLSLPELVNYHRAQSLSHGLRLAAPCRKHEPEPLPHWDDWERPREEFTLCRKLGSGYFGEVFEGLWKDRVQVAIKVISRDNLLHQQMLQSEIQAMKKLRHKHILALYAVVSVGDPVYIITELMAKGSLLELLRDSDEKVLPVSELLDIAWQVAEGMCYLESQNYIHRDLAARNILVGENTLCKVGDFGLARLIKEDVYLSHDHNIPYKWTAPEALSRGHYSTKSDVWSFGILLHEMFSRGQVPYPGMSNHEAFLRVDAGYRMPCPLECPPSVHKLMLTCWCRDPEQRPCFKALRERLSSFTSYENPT
Chain of LYN B (P07948 1-491 isoform P07948-2): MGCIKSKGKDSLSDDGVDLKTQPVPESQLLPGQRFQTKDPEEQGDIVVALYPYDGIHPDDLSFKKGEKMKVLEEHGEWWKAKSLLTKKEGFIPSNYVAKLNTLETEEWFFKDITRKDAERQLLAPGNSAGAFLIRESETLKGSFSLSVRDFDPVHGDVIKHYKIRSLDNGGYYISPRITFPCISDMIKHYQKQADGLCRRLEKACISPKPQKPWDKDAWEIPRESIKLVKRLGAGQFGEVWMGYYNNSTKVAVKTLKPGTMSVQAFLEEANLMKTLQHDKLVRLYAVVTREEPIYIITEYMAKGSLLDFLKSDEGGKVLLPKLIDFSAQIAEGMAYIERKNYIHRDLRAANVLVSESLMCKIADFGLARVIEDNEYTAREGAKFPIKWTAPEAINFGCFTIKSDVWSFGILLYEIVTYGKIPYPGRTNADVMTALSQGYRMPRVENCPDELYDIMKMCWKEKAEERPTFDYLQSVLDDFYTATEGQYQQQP
T2 sequence (P06239 whole entry): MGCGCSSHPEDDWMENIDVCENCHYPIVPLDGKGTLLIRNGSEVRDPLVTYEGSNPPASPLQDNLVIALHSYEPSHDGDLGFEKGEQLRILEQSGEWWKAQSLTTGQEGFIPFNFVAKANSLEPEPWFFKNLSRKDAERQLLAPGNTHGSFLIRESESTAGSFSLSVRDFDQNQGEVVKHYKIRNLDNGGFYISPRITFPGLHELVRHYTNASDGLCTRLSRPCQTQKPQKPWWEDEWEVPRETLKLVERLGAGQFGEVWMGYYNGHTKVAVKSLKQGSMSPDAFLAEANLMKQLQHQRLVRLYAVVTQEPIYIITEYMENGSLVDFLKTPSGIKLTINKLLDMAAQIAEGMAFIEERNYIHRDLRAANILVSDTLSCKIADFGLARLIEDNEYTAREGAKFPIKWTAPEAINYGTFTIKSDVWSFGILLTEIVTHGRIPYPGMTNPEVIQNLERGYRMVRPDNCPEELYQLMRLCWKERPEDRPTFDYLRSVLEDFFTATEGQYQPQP
T1 sequence (P00519 whole entry): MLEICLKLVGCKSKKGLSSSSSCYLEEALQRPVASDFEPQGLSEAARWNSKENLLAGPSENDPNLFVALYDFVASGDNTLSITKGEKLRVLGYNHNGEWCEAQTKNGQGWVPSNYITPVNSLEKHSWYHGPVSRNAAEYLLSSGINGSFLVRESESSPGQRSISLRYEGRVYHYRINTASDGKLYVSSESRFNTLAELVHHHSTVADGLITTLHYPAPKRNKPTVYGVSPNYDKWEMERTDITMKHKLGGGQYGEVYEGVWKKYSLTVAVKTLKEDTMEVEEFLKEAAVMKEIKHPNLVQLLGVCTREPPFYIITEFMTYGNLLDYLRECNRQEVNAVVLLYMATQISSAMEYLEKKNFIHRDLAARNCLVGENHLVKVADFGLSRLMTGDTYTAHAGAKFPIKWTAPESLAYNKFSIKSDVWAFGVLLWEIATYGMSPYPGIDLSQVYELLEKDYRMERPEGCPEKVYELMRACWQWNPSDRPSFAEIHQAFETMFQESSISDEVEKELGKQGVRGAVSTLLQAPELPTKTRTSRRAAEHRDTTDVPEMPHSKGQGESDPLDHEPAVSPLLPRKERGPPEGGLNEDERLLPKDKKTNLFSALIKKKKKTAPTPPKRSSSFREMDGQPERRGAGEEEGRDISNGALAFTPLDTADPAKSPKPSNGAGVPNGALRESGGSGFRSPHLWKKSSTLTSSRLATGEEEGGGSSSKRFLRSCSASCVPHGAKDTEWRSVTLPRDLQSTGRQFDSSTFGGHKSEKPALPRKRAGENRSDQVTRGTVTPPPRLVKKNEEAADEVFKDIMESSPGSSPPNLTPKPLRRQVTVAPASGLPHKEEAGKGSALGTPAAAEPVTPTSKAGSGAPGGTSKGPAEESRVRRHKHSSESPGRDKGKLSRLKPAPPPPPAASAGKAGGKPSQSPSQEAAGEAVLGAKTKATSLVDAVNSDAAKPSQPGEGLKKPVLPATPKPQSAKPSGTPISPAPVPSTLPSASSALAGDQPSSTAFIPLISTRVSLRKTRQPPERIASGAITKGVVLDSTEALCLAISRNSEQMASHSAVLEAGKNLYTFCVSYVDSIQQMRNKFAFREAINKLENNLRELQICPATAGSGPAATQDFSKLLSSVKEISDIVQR

Compound	IC50 [1] [µM]	IC50 (MT-2 cell line) [µM]	IC50 (Jurkat cell line) [µM]	IC50 [2] [µM]	melting point [°C]	further results
O=C(CSc1nnc(Nc2ccc(C(F)(F)F)cc2)s1)Nc1nc2ccc([N+](=O)[O-])cc2s1 [Compound 10, N-(6-Nitrobenzothiazol-2-yl)-2-((5-((4-(trifluoromethyl)phenyl)amino)-1,3,4-thiadiazol-2-yl)thio)acetamide]	> 300	> 300	> 300	75.3 ± 9	311.8 to 312.5	activity against the HeLa cell line (in words) [2]: no significant activity
Cc1ccc2nc(NC(=O)CSc3nnc(Nc4ccc(C(F)(F)F)cc4)s3)sc2c1 [Compound 7, N-(6-Methylbenzothiazol-2-yl)-2-((5-((4-(trifluoromethyl)phenyl)amino)-1,3,4-thiadiazol-2-yl)thio)acetamide]	> 300	198 ± 11	> 300	30.2 ± 4	–	–
Cc1ccc(NC(=O)c2ccc(CN3CCN(C)CC3)cc2)cc1Nc1nccc(-c2cccnc2)n1 [Imatinib, imatinib, reference compound]	–	–	–	–	–	apoptotic activity (HeLa cells): 78%; apoptotic and necrotic effects (HeLa cells): induced late apoptosis or necrosis
O=C(CSc1nnc(Nc2ccc(C(F)(F)F)cc2)s1)Nc1nccs1 [Compound 1, N-(Thiazol-2-yl)-2-((5-((4-(trifluoromethyl)phenyl)amino)-1,3,4-thiadiazol-2-yl)thio)acetamide]	> 300	> 300	> 300	135 ± 12	271.4 to 272.5	activity against the K562 cell line (in words) ([1]; 48 h): inactive; activity against the HeLa cell line (in words) [2]: no significant activity
CCOC(=O)Cc1csc(NC(=O)CSc2nnc(Nc3ccc(C(F)(F)F)cc3)s2)n1 [Compound 3, Ethyl 2-(2-(2-((5-((4-(trifluoromethyl)phenyl)amino)-1,3,4-thiadiazol-2-yl)thio)acetamido)thiazol-4-yl)acetate]	> 300	> 300	129 ± 6	14.1 ± 5	–	–
O=C(CSc1nnc(Nc2ccc(C(F)(F)F)cc2)s1)Nc1nc2ccccc2s1 [Compound 4, N-(Benzothiazol-2-yl)-2-((5-((4-(trifluoromethyl)phenyl)amino)-1,3,4-thiadiazol-2-yl)thio)acetamide]	> 300	267 ± 14	> 300	32.9 ± 2	–	–
COc1ccc2nc(NC(=O)CSc3nnc(Nc4ccc(C(F)(F)F)cc4)s3)sc2c1 [Compound 8, N-(6-Methoxybenzothiazol-2-yl)-2-((5-((4-(trifluoromethyl)phenyl)amino)-1,3,4-thiadiazol-2-yl)thio)acetamide]	> 300	> 300	> 300	30.9 ± 4	–	–
O=C(CSc1nnc(Nc2ccc(C(F)(F)F)cc2)s1)Nc1nc2ccc(Cl)cc2s1 [Compound 6, N-(6-Chlorobenzothiazol-2-yl)-2-((5-((4-(trifluoromethyl)phenyl)amino)-1,3,4-thiadiazol-2-yl)thio)acetamide]	> 300	38.3 ± 2	54.4 ± 8	28.7 ± 10	–	–
O=C(CSc1nnc(Nc2ccc(C(F)(F)F)cc2)s1)Nc1ncc([N+](=O)[O-])s1 [Compound 2, N-(5-Nitrothiazol-2-yl)-2-((5-((4-(trifluoromethyl)phenyl)amino)-1,3,4-thiadiazol-2-yl)thio)acetamide]	33 ± 4	167 ± 8	17.9 ± 4	12.4 ± 2	275 to 276.5	IC50 ([3]; PBMC, MTT, 48 h of incubation, mean ± SD, three independent experiments): 141 ± 16 µM; times lower cytotoxicity on PBMC than imatinib ([3]; ratio of PBMC IC50 values, 48 h): ~ 5 times; apoptotic activity (HeLa cells): 96%; apoptotic and necrotic effects (HeLa cells): induced late apoptosis or necrosis; IC50 (ABL1): 7.4 µM; IC50 (LCK; [4]): 40.1 µM; inhibition of LCK (in words) (LCK; IC50 in the micromolar range): significantly inhibited; inhibition of SRC (in words) (SRC): inactive; IC50 (SRC; [4]): > 100 µM; IC50 (BRK): > 100 µM; inhibition of BRK (in words) (BRK): inactive; IC50 (BTK): 30.2 µM; inhibition of BTK (in words) (BTK; IC50 in the micromolar range): significantly inhibited; IC50 (CSK): 18.4 µM; inhibition of CSK (in words) (CSK; IC50 in the micromolar range): significantly inhibited; IC50 (FYN A): 70.8 µM; inhibition of FYN A (in words) (FYN A; IC50 in the micromolar range): significantly inhibited; IC50 (LYN B): > 100 µM; inhibition of LYN B (in words) (LYN B): inactive
CCOc1ccc2nc(NC(=O)CSc3nnc(Nc4ccc(C(F)(F)F)cc4)s3)sc2c1 [Compound 9, N-(6-Ethoxybenzothiazol-2-yl)-2-((5-((4-(trifluoromethyl)phenyl)amino)-1,3,4-thiadiazol-2-yl)thio)acetamide]	> 300	> 300	96.1 ± 7	69.4 ± 7	–	activity against the HeLa cell line (in words) [2]: no significant activity
O=C(CSc1nnc(Nc2ccc(C(F)(F)F)cc2)s1)Nc1nc2ccc(F)cc2s1 [Compound 5, N-(6-Fluorobenzothiazol-2-yl)-2-((5-((4-(trifluoromethyl)phenyl)amino)-1,3,4-thiadiazol-2-yl)thio)acetamide]	> 300	78.5 ± 12	97.9 ± 10	17.3 ± 8	309.9 to 310.8	–
